Values quoted from earlier work as cited in patent US4127529A, “Novel eicosapeptides, intermediates therefor and pharmaceutical compositions and methods employing said eicosapeptides” (priority 1977, dated 1978).

Tests used:
[1] = tested on: brain opiate receptor sites; settings: natural peptide
[2] = injected directly into the brain of the rat

H-Tyr-Gly-Gly-Phe-Met-OH [methionine enkephalin]
binding to partially purified brain opiate receptor sites [1]: binds stereo-specifically
analgesic activity [2]: only weak analgesic agent of short duration
